The record followed here is ChEMBL document CHEMBL1201862, “PubChem BioAssay data set” (2004).

The test system of assay [1] is HEK293. The assay is described as follows: inhibitors of LMP1-driven NF-kB reporter, dose response, cell-based, HEK293, luciferase, cherry-pick (AID 588343). Format: functional. The following applies: Homo sapiens.
Assay [2] is described as follows: cytotoxicity in HEK-293T cells, dose response, cytotoxicity control for BCR NF-kB inhibitor project, luminescence, B-cell screen hits (AID 489021).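 Further: HEK-293T cells carrying an NF-kB luciferase reporter; cells exposed to compound for about 14 hours before viability readout.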 Format: functional, cell-based.
In assay [3] the test system is HT-1080. Put plainly: cytotoxicity in HT1080 fibrosarcoma cells, cell-based, fluorescence readout (AID 620). Format: functional. The following applies: Homo sapiens.
Assay [4] addresses Luciferin 4-monooxygenase (Photinus pyralis, UniProt P08659). Put plainly: Counter Screen for Luciferase-based Assay Positives. [Related pubchem assays: 620, 618, 411 ]. A general note: A counterscreen serves to expose hits that act by an unwanted route or on another target.
Assay [5] has as its target T1, Short transient receptor potential channel 4 (Mus musculus, UniProt Q9QUQ5).
T1 sequence (Q9QUQ5 whole entry): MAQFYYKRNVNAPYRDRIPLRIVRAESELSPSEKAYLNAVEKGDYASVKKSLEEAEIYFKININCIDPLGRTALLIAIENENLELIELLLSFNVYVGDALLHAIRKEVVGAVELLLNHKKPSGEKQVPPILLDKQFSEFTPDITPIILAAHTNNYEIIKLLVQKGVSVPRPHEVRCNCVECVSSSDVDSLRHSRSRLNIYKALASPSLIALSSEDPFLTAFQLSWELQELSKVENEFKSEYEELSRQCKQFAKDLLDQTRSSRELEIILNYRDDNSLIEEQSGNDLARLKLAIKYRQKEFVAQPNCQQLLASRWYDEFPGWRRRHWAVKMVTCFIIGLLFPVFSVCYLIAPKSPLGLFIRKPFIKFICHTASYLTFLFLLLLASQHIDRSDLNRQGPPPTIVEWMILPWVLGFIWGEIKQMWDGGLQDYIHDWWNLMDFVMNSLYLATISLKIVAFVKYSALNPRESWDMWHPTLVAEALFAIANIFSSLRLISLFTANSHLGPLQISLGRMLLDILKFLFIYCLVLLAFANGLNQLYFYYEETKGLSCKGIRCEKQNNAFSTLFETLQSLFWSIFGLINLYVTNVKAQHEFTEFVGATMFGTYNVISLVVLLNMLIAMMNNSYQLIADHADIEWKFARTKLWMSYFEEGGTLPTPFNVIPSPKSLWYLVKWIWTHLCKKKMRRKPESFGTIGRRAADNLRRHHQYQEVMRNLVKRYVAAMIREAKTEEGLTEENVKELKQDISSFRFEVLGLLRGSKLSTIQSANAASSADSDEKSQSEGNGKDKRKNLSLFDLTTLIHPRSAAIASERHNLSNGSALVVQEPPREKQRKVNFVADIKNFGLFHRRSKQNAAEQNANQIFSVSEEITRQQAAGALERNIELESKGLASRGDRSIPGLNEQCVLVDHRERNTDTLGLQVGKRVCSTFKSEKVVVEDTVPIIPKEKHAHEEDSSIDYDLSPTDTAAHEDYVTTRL
The assay is described as follows: mouse TRPC4 channel inhibitors, dose response, cell-based, HEK293 TRPC4/mu-opioid, Fluo-4 calcium (AID 434942).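 Further: potency of inhibitors blocking the TRPC4 calcium response.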 The class given is functional.

Assay [6] relates to HEK293. Put plainly: cells. The following applies: Homo sapiens.
The subject of assay [7] is HEK293. The assay is described as follows: cells. To be noted: Homo sapiens. This is another data set of the same source.
For assay [8], the target named is T2, Tyrosine-protein phosphatase non-receptor type 7 (Homo sapiens, UniProt P35236).
T2 sequence (P35236 whole entry): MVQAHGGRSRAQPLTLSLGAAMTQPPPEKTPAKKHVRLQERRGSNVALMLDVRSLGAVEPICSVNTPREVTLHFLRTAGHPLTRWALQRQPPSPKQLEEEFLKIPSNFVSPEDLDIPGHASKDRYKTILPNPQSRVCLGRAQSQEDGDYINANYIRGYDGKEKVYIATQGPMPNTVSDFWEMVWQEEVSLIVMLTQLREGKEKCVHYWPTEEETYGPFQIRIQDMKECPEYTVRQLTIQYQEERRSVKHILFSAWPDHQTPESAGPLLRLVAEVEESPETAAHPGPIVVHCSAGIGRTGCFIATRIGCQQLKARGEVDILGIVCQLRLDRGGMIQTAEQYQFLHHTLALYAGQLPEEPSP
Put plainly: redox-dependent HePTP inhibition, mechanism study, biochemical, fluorescence (AID 2068). Format: functional.

In assay [9] the target is NACHT, LRR and PYD domains-containing protein 3 (Homo sapiens, UniProt Q96P20). Put plainly: NALP3 inhibitors in yeast, dose response, luminescent (AID 488799). The class given is functional.
For assay [10], the target named is Nonstructural protein 1 (Influenza A virus, UniProt Q194T2). Format: functional, Influenza A virus (A/California/07/2009(H1N1)).
Assay [11] addresses T3, Alkaline phosphatase, tissue-nonspecific isozyme (Homo sapiens, UniProt P05186).
T3 sequence (P05186 whole entry): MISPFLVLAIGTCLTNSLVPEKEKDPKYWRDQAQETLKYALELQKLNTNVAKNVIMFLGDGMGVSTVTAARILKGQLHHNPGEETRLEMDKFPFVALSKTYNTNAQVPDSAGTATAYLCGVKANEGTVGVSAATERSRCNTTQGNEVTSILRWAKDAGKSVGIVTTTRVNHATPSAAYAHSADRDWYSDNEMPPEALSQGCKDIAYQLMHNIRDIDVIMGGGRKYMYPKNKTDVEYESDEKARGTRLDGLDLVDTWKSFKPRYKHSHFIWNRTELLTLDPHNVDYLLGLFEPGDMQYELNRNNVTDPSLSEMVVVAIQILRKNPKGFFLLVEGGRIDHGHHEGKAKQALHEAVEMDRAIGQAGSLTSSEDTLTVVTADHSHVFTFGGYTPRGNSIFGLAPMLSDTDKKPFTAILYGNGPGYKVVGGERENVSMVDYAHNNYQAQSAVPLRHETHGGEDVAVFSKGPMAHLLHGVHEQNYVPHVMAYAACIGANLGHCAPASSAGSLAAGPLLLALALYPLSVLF
The assay is described as follows: human TNAP enzyme inhibitors, SAR follow-up, biochemical, luminescent, dose response (AID 1056).

The target of assay [12] is Alkaline phosphatase, placental type (Homo sapiens, UniProt P05187). The assay is described as follows: PLAP enzyme inhibitors, confirmation, biochemical, luminescence (AID 1512). Format: functional.
Alkaline phosphatase, placental type, sequence (P05187 whole entry, the tested form may be a part): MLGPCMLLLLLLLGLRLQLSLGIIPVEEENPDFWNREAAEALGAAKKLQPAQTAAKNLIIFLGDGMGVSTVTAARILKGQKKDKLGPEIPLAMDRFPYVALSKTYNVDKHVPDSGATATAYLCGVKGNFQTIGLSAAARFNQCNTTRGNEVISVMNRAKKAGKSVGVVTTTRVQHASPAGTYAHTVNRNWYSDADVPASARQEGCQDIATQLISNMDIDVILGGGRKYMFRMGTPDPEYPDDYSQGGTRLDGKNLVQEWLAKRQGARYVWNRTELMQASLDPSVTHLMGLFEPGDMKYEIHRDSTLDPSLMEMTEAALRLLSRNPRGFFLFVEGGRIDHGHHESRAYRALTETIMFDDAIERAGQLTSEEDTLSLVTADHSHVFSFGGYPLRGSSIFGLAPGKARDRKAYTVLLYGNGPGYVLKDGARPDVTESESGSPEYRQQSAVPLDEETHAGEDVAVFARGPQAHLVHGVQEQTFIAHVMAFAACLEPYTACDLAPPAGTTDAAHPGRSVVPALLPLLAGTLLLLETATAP
Assay [13] deals with 1-acylglycerol-3-phosphate O-acyltransferase ABHD5/Perilipin-5 (Homo sapiens, UniProt Q00G26+Q8WTS1). Put plainly: Luminescence-based biochemical high throughput dose response assay for inhibitors of the interaction of the lipase co-activator protein, abhydrolase domain containing 5 (ABHD5) with perilipin-5 (MLDP; PLIN5) (2K validation set). [Related pubchem assays (depositor defined):AID493035, AID493241].
1-acylglycerol-3-phosphate O-acyltransferase ABHD5/Perilipin-5, sequence (Q00G26 whole entry, the tested form may be a part): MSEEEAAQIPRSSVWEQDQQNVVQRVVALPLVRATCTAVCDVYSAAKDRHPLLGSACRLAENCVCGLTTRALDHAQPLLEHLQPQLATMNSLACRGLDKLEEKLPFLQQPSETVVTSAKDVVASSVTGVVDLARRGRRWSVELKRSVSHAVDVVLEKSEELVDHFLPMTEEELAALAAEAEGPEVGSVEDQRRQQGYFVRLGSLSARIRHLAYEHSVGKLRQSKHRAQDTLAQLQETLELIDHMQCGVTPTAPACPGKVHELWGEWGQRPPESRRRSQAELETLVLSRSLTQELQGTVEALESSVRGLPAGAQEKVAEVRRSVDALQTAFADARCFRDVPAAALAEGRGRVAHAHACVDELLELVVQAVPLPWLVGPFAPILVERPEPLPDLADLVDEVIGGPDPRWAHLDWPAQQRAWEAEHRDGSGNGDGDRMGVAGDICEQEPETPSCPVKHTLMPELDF
1-acylglycerol-3-phosphate O-acyltransferase ABHD5/Perilipin-5, sequence (Q8WTS1 whole entry, the tested form may be a part): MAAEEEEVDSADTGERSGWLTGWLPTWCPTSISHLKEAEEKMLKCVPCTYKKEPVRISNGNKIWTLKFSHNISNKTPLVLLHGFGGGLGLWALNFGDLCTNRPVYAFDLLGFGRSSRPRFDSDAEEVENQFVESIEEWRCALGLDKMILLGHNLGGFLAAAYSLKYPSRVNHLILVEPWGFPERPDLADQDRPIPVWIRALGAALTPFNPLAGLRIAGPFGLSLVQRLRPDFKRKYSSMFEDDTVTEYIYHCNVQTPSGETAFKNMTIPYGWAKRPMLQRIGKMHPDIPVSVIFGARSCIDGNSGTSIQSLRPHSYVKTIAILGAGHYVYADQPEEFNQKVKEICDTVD

Assay [14] deals with Eukaryotic translation initiation factor 4E (Mus musculus, UniProt P63073). Put plainly: eIF4E–eIF4G protein interaction inhibitors, dose response, biochemical, TR-FRET (AID 855).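 Further: potency for disrupting eIF4E binding to eIF4GI seen as loss of FRET.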 Format: functional.
Assay [15] addresses Perilipin-1/ABHD5 (Homo sapiens, UniProt O60240+Q8WTS1). Put plainly: Luminescence-based biochemical high throughput dose response assay for inhibitors of the interaction of the lipase co-activator protein, abhydrolase domain containing 5 (ABHD5) with perilipin-1 (PLIN1) (2K validation set). [Related pubchem assays (depositor defined):AID493027, AID493057].
Assay [16] has as its target Glyceraldehyde-3-phosphate dehydrogenase (Homo sapiens, UniProt P04406).
The target of assay [17] is T4, Ubiquitin-conjugating enzyme E2 N (Homo sapiens, UniProt P61088).
T4 sequence (P61088 whole entry): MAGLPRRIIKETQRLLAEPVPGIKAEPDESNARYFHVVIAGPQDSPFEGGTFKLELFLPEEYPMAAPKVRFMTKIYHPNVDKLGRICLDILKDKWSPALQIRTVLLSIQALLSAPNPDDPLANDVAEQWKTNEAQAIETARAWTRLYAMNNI
The class given is functional.

In assay [18] the target is T4, Ubiquitin-conjugating enzyme E2 N. Format: functional. The source holds these as a separate data set.
Assay [19] concerns the target T5, Bcl-2-related protein A1 (Mus musculus, UniProt Q07440).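 Further: confirmatory dose–response counterscreen on Bfl-1, used to check hits from a UBC13 polyubiquitin inhibitor campaign.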
T5 sequence (Q07440 whole entry): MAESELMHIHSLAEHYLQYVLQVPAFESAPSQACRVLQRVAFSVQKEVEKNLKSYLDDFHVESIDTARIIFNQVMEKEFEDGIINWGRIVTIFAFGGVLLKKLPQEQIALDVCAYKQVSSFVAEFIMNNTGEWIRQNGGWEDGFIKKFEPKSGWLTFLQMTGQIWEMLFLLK
Format: functional.

The target in assay [20] is 5-hydroxytryptamine receptor 5A (Homo sapiens, UniProt P47898). The assay is described as follows: Counterscreen for agonists of OPRM1-OPRD1 heterodimerization: luminescence-based cell-based high throughput dose response assay to identify agonists of 5-hydroxytryptamine (serotonin) 5A receptor (HTR5A). [Related pubchem assays (depositor defined):AID504326, AID504355, AID504692, AID504904, AID504905]. Format: functional.

For assay [21], the target named is Delta-type opioid receptor (Homo sapiens, UniProt P41143). The assay is described as follows: Counterscreen for agonists of heterodimerization of the mu 1 (OPRM1) and delta 1 (OPRD1) opioid receptors: Luminescence-based cell-based high throughput dose response assay to identify agonists of OPRD1 homodimerization. [Related pubchem assays (depositor defined):AID504326, AID504355, AID504692, AID504904, AID504905]. The class given is functional.

The target of assay [22] is Mu-type opioid receptor (Homo sapiens, UniProt P35372). The assay is described as follows: Counterscreen for agonists of heterodimerization of the mu 1 (OPRM1) and delta 1 (OPRD1) opioid receptors: Luminescence-based cell-based high throughput dose response assay to identify agonists of OPRM1 homodimerization. The class given is functional.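 Further: U2OS cells expressing OPRM1 and beta-arrestin as split beta-galactosidase partners.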
The target of assay [23] is T6, Type-1 angiotensin II receptor (Homo sapiens, UniProt P30556).
T6 sequence (P30556 whole entry): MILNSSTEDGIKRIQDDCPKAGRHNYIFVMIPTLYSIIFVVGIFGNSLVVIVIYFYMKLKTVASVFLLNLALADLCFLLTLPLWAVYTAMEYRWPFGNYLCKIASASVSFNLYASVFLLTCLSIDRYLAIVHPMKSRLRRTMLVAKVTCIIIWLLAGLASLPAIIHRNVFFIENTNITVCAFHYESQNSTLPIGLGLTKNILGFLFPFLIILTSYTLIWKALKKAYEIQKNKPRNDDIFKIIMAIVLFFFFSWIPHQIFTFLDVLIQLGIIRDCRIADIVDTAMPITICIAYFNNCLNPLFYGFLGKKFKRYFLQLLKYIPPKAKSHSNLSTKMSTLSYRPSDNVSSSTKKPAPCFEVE
The assay is described as follows: AT1 receptor agonists, dose response, selectivity assay for APJ receptor agonist project, cell-based, uHTS hits (AID 488865).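 Further: beta-arrestin recruitment to AT1 measured by enzyme fragment complementation luminescence.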 The class given is functional.

Assay [24] is described as follows: Fluorescence-based cell-based high throughput dose response assay for inhibitors of the interaction of nucleotide-binding oligomerization domain containing 2 (NOD2) and the receptor-interacting serine-threonine kinase 2 (RIPK2). Format: functional. To be noted: Homo sapiens.
The target in assay [25] is T7, Voltage-gated N-type calcium channel alpha-1B subunit/Amyloid beta A4 precursor protein-binding family A member 1 (Homo sapiens, UniProt Q00975+Q02410). Format: protein assay.
T7 sequence (Q00975 whole entry): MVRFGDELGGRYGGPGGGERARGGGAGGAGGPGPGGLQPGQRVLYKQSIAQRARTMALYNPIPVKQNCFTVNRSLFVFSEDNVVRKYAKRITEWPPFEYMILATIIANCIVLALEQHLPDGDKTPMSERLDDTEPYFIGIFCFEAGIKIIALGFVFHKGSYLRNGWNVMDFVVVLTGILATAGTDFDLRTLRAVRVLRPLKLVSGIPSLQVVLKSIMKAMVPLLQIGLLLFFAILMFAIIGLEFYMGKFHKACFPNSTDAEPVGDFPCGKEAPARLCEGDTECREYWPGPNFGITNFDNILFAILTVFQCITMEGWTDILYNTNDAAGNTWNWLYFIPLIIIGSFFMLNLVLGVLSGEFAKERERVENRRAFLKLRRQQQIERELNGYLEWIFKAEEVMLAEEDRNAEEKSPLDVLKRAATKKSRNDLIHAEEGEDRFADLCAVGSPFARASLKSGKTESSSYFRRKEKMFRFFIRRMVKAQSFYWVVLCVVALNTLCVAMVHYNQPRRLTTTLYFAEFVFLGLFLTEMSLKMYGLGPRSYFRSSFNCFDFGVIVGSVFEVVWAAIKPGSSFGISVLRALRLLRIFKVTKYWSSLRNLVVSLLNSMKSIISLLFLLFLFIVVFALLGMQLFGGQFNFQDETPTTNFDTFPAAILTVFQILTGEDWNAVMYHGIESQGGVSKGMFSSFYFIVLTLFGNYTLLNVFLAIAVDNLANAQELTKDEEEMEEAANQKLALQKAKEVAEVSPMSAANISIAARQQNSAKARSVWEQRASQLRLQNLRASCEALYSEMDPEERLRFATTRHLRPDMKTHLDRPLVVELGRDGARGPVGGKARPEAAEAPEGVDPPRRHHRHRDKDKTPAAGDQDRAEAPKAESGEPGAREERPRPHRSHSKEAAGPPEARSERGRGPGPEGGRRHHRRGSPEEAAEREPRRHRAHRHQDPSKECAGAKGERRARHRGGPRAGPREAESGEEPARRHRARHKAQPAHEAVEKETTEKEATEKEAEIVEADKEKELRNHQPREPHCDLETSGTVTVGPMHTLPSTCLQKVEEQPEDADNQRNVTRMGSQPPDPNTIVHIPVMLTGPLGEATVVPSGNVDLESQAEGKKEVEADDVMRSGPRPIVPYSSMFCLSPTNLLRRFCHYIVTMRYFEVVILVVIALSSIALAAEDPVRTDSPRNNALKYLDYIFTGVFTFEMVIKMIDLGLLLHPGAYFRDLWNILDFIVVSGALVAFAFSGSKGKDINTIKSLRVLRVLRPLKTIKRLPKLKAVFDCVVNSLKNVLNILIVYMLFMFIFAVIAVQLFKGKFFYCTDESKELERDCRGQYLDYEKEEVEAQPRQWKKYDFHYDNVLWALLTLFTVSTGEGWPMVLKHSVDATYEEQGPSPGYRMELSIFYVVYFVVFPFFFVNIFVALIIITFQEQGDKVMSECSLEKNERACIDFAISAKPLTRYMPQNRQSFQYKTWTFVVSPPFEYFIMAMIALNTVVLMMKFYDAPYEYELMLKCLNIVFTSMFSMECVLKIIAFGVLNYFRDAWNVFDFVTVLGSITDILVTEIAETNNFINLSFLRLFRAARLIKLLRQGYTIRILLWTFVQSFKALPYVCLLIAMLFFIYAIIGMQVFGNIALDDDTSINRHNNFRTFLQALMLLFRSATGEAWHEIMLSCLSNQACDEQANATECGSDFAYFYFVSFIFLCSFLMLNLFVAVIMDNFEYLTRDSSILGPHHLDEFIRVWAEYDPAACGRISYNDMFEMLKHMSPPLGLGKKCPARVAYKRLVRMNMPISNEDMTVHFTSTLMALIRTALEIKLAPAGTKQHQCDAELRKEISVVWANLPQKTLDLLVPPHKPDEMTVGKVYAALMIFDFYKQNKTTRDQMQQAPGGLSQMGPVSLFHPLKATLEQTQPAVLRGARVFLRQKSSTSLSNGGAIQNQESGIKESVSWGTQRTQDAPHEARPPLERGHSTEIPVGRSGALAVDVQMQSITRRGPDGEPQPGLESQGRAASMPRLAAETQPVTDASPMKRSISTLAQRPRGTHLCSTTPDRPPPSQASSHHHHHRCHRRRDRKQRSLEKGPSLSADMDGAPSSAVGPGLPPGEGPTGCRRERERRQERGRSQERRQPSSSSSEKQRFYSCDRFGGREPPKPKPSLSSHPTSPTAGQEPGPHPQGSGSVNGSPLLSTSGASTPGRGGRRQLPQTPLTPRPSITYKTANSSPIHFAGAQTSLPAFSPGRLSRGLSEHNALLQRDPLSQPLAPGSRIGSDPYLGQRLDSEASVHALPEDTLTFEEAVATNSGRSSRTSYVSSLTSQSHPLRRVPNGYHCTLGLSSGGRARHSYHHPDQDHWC
T7 sequence (Q02410 whole entry): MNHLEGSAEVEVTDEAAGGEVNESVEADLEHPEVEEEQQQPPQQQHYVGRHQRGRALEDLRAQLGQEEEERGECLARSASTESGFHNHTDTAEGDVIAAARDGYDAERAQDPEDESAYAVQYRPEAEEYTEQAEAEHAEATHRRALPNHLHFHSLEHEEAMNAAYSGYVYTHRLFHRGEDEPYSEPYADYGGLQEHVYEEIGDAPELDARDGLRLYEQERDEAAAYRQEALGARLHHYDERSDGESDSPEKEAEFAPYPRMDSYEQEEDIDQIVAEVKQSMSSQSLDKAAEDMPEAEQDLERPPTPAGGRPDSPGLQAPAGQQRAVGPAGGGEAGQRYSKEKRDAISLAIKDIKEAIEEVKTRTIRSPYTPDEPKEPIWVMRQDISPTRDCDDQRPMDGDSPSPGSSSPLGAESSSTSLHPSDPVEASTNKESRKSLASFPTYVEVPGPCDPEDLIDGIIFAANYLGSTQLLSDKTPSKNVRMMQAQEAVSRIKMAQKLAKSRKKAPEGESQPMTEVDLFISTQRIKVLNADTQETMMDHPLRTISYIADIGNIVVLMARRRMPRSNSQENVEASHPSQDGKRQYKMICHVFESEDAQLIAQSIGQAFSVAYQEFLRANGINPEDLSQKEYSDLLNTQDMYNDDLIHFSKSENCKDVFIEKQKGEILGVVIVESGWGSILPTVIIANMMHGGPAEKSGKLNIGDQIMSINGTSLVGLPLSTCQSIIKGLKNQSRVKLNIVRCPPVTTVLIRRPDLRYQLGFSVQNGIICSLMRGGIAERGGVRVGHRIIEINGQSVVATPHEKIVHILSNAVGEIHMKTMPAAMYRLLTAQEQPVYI
The target in assay [26] is Induced myeloid leukemia cell differentiation protein Mcl-1 (Homo sapiens, UniProt Q07820). Format: functional.
Assay [27] has as its target T7, Voltage-gated N-type calcium channel alpha-1B subunit/Amyloid beta A4 precursor protein-binding family A member 1. The class given is protein assay. The source holds these as a separate data set.

Activity calls are given as the source filed them. Bounds are passed on as bounds.

The term AC50 denotes the midpoint of the concentration-response curve, whichever way the signal moves. By IC50 is commonly meant the concentration at which inhibition is half-maximal. As usually defined, the EC50 is the concentration that produces a half-maximal response.

Perilipin-1/ABHD5, sequence (Q8WTS1 whole entry, the tested form may be a part): as the sequence (Q8WTS1 whole entry, the tested form may be a part) above
Perilipin-1/ABHD5, sequence (O60240 whole entry, the tested form may be a part): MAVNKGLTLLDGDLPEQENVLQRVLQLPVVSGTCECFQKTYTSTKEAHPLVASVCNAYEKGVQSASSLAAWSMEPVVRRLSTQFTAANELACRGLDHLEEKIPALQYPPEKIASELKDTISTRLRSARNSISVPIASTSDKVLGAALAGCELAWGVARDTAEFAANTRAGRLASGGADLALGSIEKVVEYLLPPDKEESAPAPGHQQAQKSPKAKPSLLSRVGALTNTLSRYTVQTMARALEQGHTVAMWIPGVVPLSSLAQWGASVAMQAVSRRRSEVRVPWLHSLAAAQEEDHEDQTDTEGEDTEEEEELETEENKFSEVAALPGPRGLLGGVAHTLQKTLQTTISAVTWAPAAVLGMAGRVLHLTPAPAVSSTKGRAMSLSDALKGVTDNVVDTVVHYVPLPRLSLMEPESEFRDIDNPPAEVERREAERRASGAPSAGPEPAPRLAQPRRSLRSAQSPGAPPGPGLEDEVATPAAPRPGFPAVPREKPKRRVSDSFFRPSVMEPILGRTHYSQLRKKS

For `CCc1ccc(-c2nnn(CCC(=O)OC)n2)cc1`, the concentration at half-maximal activity (AC50) in assay [1] was 16.2 µM (active). Further, the IC50 in assay [2] is > 80 µM (inactive). For the same molecule, the half-maximal effective concentration (EC50) in assay [3] was > 50 µM (not active); in assay [4], 5.58 µM (active).
Regarding `Cc1ccc(O)c(CNc2nc3ccccc3[nH]2)c1`, the half-maximal effective concentration (EC50) in [5] was 1.5 µM (active).
On to `O=C(NCCN1CCOCC1)c1cc2sccc2n1Cc1ccc(F)cc1`, for which the EC50 in assay [6] was > 59.7 µM (inactive); in [5], 5.96 µM (active); in [7] it was > 59.7 µM (inactive).
Consider `COc1ccc(NC(=O)Nc2ccc3nc(-c4ccco4)c(-c4ccco4)nc3c2)cc1`, for which the half-maximal inhibitory concentration (IC50) in [8] was 12.2 µM (active).
For `O=C(Nc1cccc(Cl)c1)c1cc(N=Nc2ccc([N+](=O)[O-])cc2Cl)ccc1O`, the IC50 is 1.34 µM (active) in [9] and 22.1 µM (active) in assay [10].
For `Cn1ccnc1SCC(=O)c1ccc(O)c(O)c1`, the values for the half-inhibitory concentration (IC50) in assay [11] and in [12] were 75.7 µM (active) and 8.56 µM (active), respectively.
Take `CC1(C)c2ccccc2N2CC(=O)NC21/C=C/c1ccco1` (configuration not stated): the IC50 is 20.6 µM (inactive) in assay [13], 50 µM (inactive) in assay [14] and 20.8 µM (inactive) in assay [15].
For `CCOc1cc2c3c(c1)C(C)=CC(C)(C)N3C(=O)C2=O`, the IC50 in [13] is 15 µM (inactive); in assay [15], 15.3 µM (inactive).
Consider `Clc1ccccc1-c1nnc2c3cnn(-c4ccccc4)c3ncn12`, for which the half-inhibitory concentration (IC50) is > 100 µM (not active) in assay [16], > 100 µM (inactive) in [11] and > 100 µM (inactive) in assay [12].
Regarding `CCc1ccc2nc(N(CCCN(C)C)C(=O)c3ccc(S(=O)(=O)N4CCc5ccccc5C4)cc3)sc2c1`, the IC50 is 4.58 µM (active) in assay [17], 4.49 µM (active) in assay [18], > 20 µM (inactive) in assay [19] and 80 µM (inactive) in [24]. Besides, the EC50 in assay [20] is > 92.5 µM (inactive); in assay [21], > 92.5 µM (inactive); in assay [22], > 92.5 µM (inactive); in assay [23], > 100 µM (inactive).
In the case of `CCOC(=O)c1ccc(N=Nc2c(O)nc(O)c(C#N)c2C)cc1`, the IC50 was > 56.8 µM (not active) in [25], 3.18 µM (active) in [26] and > 50 µM (inactive) in assay [27].
